Laboratory results: PubChem BioAssay (NCI)
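Test compounds were applied to cells in 96-well plates for 48 hours at 5 doses. The concentration for 50% growth inhibition is given as GI50. TGI: concentration producing complete growth inhibition.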

How the values were obtained:
Test in all cases: NCI anticancer screen, dose series, 48 h
[1] = test system: MDA-MB-435
[2] = test system: NCI-H522 lung
[3] = test system: UACC-62 melanoma
[4] = test system: A549 NSCLC
[5] = test system: EKVX NSCLC
[6] = test system: SK-OV-3 ovarian
[7] = test system: SNB-75 CNS
[8] = test system: T-47D breast
[9] = test system: SNB-19 CNS
[10] = test system: TK-10 renal
[11] = test system: OVCAR-3 ovarian
[12] = test system: SF-539 CNS
[13] = test system: CCRF-CEM leukemia
[14] = test system: U251 CNS
[15] = test system: UO-31 renal
[16] = test system: KM12 colon
[17] = test system: OVCAR-4 ovarian
[18] = test system: NCI-H460 lung
[19] = test system: HCT-15 colon
[20] = test system: K-562 leukemia
[21] = test system: 786-0 renal
[22] = test system: HCT-116 colon
[23] = test system: HS 578T breast
[24] = test system: COLO 205 colon
[25] = test system: MDA-MB-231 breast
[26] = test system: SF-295 CNS
[27] = test system: LOX IMVI melanoma
[28] = test system: PC-3 prostate
[29] = test system: HL-60(TB) leukemia
[30] = test system: NCI-H226 lung
[31] = test system: ACHN renal
[32] = test system: SW-620 colon
[33] = test system: HOP-62 NSCLC
[34] = test system: A498 renal
[35] = test system: SR leukemia
[36] = test system: HCC-2998 colon
[37] = test system: SN12C renal
[38] = test system: HOP-92 NSCLC
[39] = test system: UACC-257 melanoma
[40] = test system: SK-MEL-5 melanoma
[41] = test system: NCI-H23 lung
[42] = test system: NCI/ADR-RES ovarian
[43] = test system: MALME-3M melanoma
[44] = test system: CAKI-1 renal
[45] = test system: M14 melanoma
[46] = test system: BT-549 breast
[47] = test system: MDA-N
[48] = test system: SK-MEL-28 melanoma
[49] = test system: MCF7 breast
[50] = test system: MOLT-4 leukemia
[51] = test system: SF-268 CNS
[52] = test system: OVCAR-5 ovarian
[53] = test system: RPMI-8226 leukemia
[54] = test system: HT29 colon
[55] = test system: DU-145 prostate
[56] = test system: OVCAR-8 ovarian
[57] = test system: IGROV1 ovarian
[58] = test system: SK-MEL-2 melanoma

Cc1cc(C)c2c(=O)cc(-c3ccc(F)cc3)[nH]c2n1
GI50 [1]: 18.6 µM | TGI [1]: 40.6 µM | TGI [2]: > 100 µM | TGI [3]: > 100 µM | TGI [4]: > 100 µM | TGI [5]: > 100 µM | TGI [6]: > 100 µM | TGI [7]: > 100 µM | TGI [8]: > 100 µM | TGI [9]: > 100 µM | TGI [10]: > 100 µM | GI50 [11]: 43.5 µM | TGI [11]: > 100 µM | TGI [12]: > 100 µM | TGI [13]: > 100 µM | GI50 [14]: 95.1 µM | TGI [14]: > 100 µM | TGI [15]: 92.4 µM | TGI [16]: 49.9 µM | TGI [17]: 48.3 µM | GI50 [18]: 51.6 µM | TGI [18]: > 100 µM | TGI [19]: > 100 µM | TGI [20]: > 100 µM | GI50 [21]: 78.8 µM | TGI [21]: > 100 µM | GI50 [22]: 50 µM | TGI [22]: > 100 µM | TGI [23]: > 100 µM | TGI [24]: > 100 µM | TGI [25]: > 100 µM | GI50 [26]: 50.1 µM | TGI [26]: > 100 µM | TGI [27]: > 100 µM | GI50 [28]: 30.1 µM | TGI [28]: > 100 µM | GI50 [29]: 15.5 µM | TGI [29]: 37.4 µM | TGI [30]: > 100 µM | TGI [31]: > 100 µM | TGI [32]: > 100 µM | TGI [33]: > 100 µM | TGI [34]: 99.5 µM | TGI [35]: 67.7 µM | TGI [36]: > 100 µM | TGI [37]: > 100 µM | TGI [38]: 90.3 µM | TGI [39]: > 100 µM | GI50 [40]: 26.2 µM | TGI [40]: 75.8 µM | TGI [41]: > 100 µM | TGI [42]: > 100 µM | TGI [43]: > 100 µM | TGI [44]: > 100 µM | TGI [45]: > 100 µM | TGI [46]: > 100 µM | GI50 [47]: 25 µM | TGI [47]: 67.9 µM | TGI [48]: > 100 µM | TGI [49]: > 100 µM | TGI [50]: > 100 µM | TGI [51]: > 100 µM | TGI [52]: > 100 µM | TGI [53]: > 100 µM | TGI [54]: > 100 µM | TGI [55]: > 100 µM | TGI [56]: > 100 µM | TGI [57]: > 100 µM | TGI [58]: > 100 µM
